Data published in the SangsterLogP compilation.

assay: method code SF, from Rulke, H.; Friedel, A.; Martin, E.; Kottke, K.; Grafe, I.; Kuhmstedt, H. (1991). Investigations on the acidity ond partition properties of 1-phenyl-5-mercaptotetrazoles. Pharmazie, 46(6)456-457.

| SMILES | logP |
| --- | --- |
| S=c1[nH]nnn1-c1ccccc1I | 3.14 |
| S=c1[nH]nnn1-c1ccc(Cl)cc1Cl | 2.89 |
| S=c1[nH]nnn1-c1cccc(Cl)c1Cl | 2.41 |
| S=c1[nH]nnn1-c1cccc(Cl)c1 | 2.34 |
| S=c1[nH]nnn1-c1ccc(Cl)cc1 | 2.09 |

Results, then the molecule that gave them:

| logP | SMILES |
| --- | --- |
| 2.63 | S=c1[nH]nnn1-c1ccc2ccccc2c1 |
| 2.39 | S=c1[nH]nnn1-c1cccc(Br)c1 |
| 1.99 | O=[N+]([O-])c1ccc(-n2nn[nH]c2=S)cc1 |
| 2.68 | S=c1[nH]nnn1-c1ccc(Cl)c(Cl)c1 |
| 2.29 | Cc1cccc(-n2nn[nH]c2=S)c1 |
| 2.54 | S=c1[nH]nnn1-c1ccc(Br)cc1 |
